# Experimental data from patent publication US20230220047A1, “PEPTIDES FOR TREATMENT OF SEPSIS AND CANCER” (NORWEGIAN UNIVERSITY OF SCIENCE AND TECHNOLOGY (NTNU), priority 2020, published 2023).
# Tests used:
# [1] = test system: primary Vk*MYC multiple myeloma cells; assay: Primary Vk*MYC multiple myeloma cells; assay type: cell-based, mouse; details: 7.5 or 15 μM, 48 h
# Method: Isolated primary cells were seeded then incubated for 48 hours in growth medium supplemented with water, penetratin, P7-Pen, P7-A4-Pen or P7-N4-Pen, then counted. Peptides were included at concentrations of 7.5 or 15 μM. […] Results are based on 3 biological replicates, error bars show standard deviation of mean.
# Multiple myeloma cells JJN-3 (DSMZ (Germany) no. ACC 541), ANBL-6 (Cellosaurus accession number CVCL_5425, obtained from Dr Diane Jelinek, Mayo Clinic, Rochester, Minn.), INA-6 (Cellosaurus accession number CVCL_5209, obtained from Dr M. Gramatzki, University of Erlangen-Nurnberg, Erlangen, Germany), RPMI-8226 (ATCC CCL-155), and IH-1 (Cellosaurus accession number CVCL_WZ44, established from the pleural effusion of a myeloma patient by Myeloma research group, IKOM, NTNU, Trondheim, Norway) were grown in RPMI-1640 (Sigma-Aldrich Norway, Oslo, Norway) supplemented with 100 nM penicillin/streptomycin and 10% FCS, and for ANBL-6, IH-1 and INA-6 cells 2 ng/ml recombinant IL-6 (Gibco, Thermo Fisher Scientific, Waltham, Mass., USA). Murine multiple myeloma Vk*MYC cells were obtained from M.D. Leif Bergsagel (Mayo Clinic, Richester, Minn., USA) and cultured in RPMI-1640 supplemented with 2% human serum (B^+, The blood bank, St Olav's Hospital, Trondheim, Norway), 100 nM penicillin/streptomycin, L-Glutamine (2 mM) and recombinant IL-6 (1 ng/ml). HEK293T (ATCC CRL-3216) were cultured in DMEM with 10% FCS. THP-1 TRAM knockout (KO) and TLR4 KO cell lines, and matching lentivirally transduced control cell lines, were differentiated in the same way as wild type (WT) THP-1. TRAM KO THP-1 cell line is described in Yurchenko et al. (supra).
# Primary multiple myeloma cells were isolated from Vk*Myc mice and provided by the Multiple Myeloma Research Group, IKOM, NTNU. The peptides P7-Pen, P7-N4-Pen and P7-A4-Pen were applied to the cultured primary cells and effect of the peptides on cell growth analysed as previously.
# TLR4 [2] = assay: Whole blood assay, LPS stimulation; assay type: cell-based, human
# From the text: […] Results are for at least 6 donors. The Wilcoxon matched-pairs signed rank test was used for statistical analysis between 2 groups in Prizm 8.2.1. In each graph, circles indicate whole blood pre-treated with water, squares indicate blood pre-treated with control peptide (average for treatment with Pen and C3-Pen), and triangles indicate pre-treatment with P7-Pen.
# To evaluate the effect of peptides in an ex vivo system, a human whole blood model was used. Peripheral venous blood was drawn from 6 healthy donors into sterile polypropylene tubes (Thermo Scientific™ Nunc™ Biobanking and Cell Culture Cryogenic Tubes) containing the anti-coagulant Lepirudin (Refludan®; Celgene). […] Peptide solution or DPBS was distributed in equal volume (50 μL) to 1.8 mL sterile polypropylene tubes (Thermo Scientific™Nunc™ Biobanking and Cell Culture Cryogenic Tubes). […] Stimulation solutions were made by diluting K12 LPS or CL075 in DPBS to obtain a final concentration in whole blood of 100 ng/mL (LPS) or 1 μg/mL (CL075) after addition of 50 μL stimulation solution or DPBS. […] Tubes were incubated at 37° C. under constant rotation for 4 h. Finally, plasma was isolated from the whole blood specimens by centrifugation, collected in 96 well plates (Corning® 96 Well CellBIND® Microplates), and stored at −20/−80° C. until analysis by multiplex/27-plex cytokine assay or IFNβ ELISA (VeriKine-HS Human Interferon Beta Serum ELISA Kit; pbl Assay Science).
# TLR9 = assay type: cell-based, human; details: 15 μM, 1 h pre-treatment, CpG 2006
# Method: CpG 2006 (10 μM) was used as specific TLR9 ligand. (A) Results of LDH assay on SNs from stimulated cells. (B-E) Results of qPCR analysis of cytokine expression with TaqMan probes. (F) Results of ELISA for secreted IL-113 levels. Cells were pre-treated with 15 μM peptides for 1 h, followed by addition of CpG 2006 to the cell culture media.
# We then tested whether P7-Pen could alter signaling via another endosomal PRR: TLR9, which recognises specific unmethylated CpG motifs prevalent in microbial DNA. In humans, TLR9 is almost exclusively expressed in B cells and plasmacytoid dendritic cells (pDC), while in mice TLR9 is expressed more widely, including in myeloid immune cells. To test the effect of P7-Pen on signaling via human TLR9 we used a model system of THP-1 cells expressing an inducible TLR9^CHERRY construct. 48 hr after induction of TLR9 expression by doxycycline, undifferentiated THP-1 TLR9^CHERRY cells were pre-treated with control or P7-Pen peptide for 1 hr, then stimulated with the Class B CpG oligonucleotide CpG 2006 ODN (a human-specific TLR9 agonist). […] Thus, P7 peptide could also be used to inhibit the expression of selected cytokines mediated by TLR9 in human disease.
# TLR4 [3] = assay: Western blot of LPS signalling in THP-1 cells and primary human monocytes; assay type: cell-based
# Method: Protein pellets were dissolved by heating protein pellets for 10 min at 95° C. in buffer containing 4 M urea, 1 SDS (Sigma) and NuPAGE® LDS Sample Buffer (4×) (Thermo Fisher Scientific). Otherwise, lysates were made using 1× RIPA lysis buffer (150 mM NaCl, 50 mM TrisHCl (pH 7.5), 1% Triton X100, 5 mM EDTA, protease inhibitors, phosphatase inhibitors). For Western blot analysis we used pre-cast protein gels NuPAGE™ Novex™ and iBlot Transfer Stacks iBlot Gel Transfer Device (Thermo Fisher Scientific). Proteins were transferred to the membrane by dry-blotting using iBlot® 2 NC Regular/Mini Stacks (Life Technologies) in the iBlot 2 Dry Blotting System (Life Technologies). After secondary antibody incubation, membranes were washed and incubated with HRP substrate solution (SuperSignal™ West Femto Maximum Sensitivity Substrate (Thermo Fisher Scientific)). Images were taken using Odyssey® Fc (LI-CORE). Quantification graphs were generated by the analysis of signal intensities for protein bands (protein of interest and endogenous loading control—β-tubulin from the same membrane) using Odyssey software (LI-CORE). Data were normalised to the expression levels of β-tubulin and presented as a relative fold change to the control sample.
# Further, we tested the effect of P7-Pen on phosphorylation of p38 MAPK, IκBα degradation and modification of IRAK1 in human macrophages (THP-1 cells) and primary human monocytes. P7-Pen inhibited LPS-mediated phosphorylation of p38 MAPK (FIG. 24A) and inhibited IRAK1 ubiquitination/phosphorylation (visualised as band shift to higher molecular weight) in primary monocytes (FIG. 24B).
Substance,effect on primary multiple myeloma cells [1],"TLR4-mediated IFNβ release by whole blood cells (TLR4 [2]; 20 μM, LPS 100 ng/ml 4 h)","LPS/TLR4-induced TNF, IL-6 and IL-1β secretion (TLR4 [2]; 20 μM, compared to control peptides)",TLR9-mediated IFNβ and CXCL10 expression (TLR9),TLR9-mediated expression of TNF and IL-1β (TLR9),LPS-mediated phosphorylation of p38 MAPK (TLR4 [3]; THP-1 cells),"IRAK1 ubiquitination/phosphorylation (TLR4 [3]; primary monocytes, LPS)","LPS-mediated IFNβ secretion by whole blood cells (TLR4 [2]; pilot assay, 10 μM, LPS 100 ng/ml)"
Ac-ITVAASVTLTGRQIKIWFQNRRMKWKK-NH2 [Peptide P7-A4-Pen],strong cytotoxic effect,,,,,,,
Ac-ITVYASVTLTGRQIKIWFQNRRMKWKK-NH2 [Peptide P7-Pen],strong cytotoxic effect,effectively abrogated,significant reduction,strongly inhibited,to some extent inhibited,inhibited,inhibited,
Ac-ITVYASVTLTGRRRRRRRRRRR-NH2 [Peptide P7-Arg11],,,,,,,,inhibited
